# From PubChem BioAssay AID464 (The Scripps Research Institute Molecular Screening Center, 2006)
# The source made the active and inactive calls.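 The calls were made as follows: active = Compounds that kill half the cells at a concentration of 5 micromolar or below, from the fitted or estimated CC50; inactive = CC50 above 5 micromolar.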
# System: Jurkat E6.1 viability, ATP luminescence, 48 h
# Assay: Jurkat E6.1 cell cytotoxicity, CC50 determination, dose response, cytotoxicity control, ATP luminescence, 48 h, 60K MLSMR (AID 464)
row,Structure (SMILES),CC50
1,Cn1c(C(=O)NCCc2c[nH]c3ccccc23)cc2sccc21,> 40 µM (inactive)
2,CCCCCCOc1ccc(/C(N)=N/O)cc1,6.87 µM (inactive)
3,c1ccc(-c2noc(-c3ccc4c(c3)OCO4)n2)nc1,2.75 µM
4,O=C(CSc1n[nH]c(-c2ccccc2O)n1)N1CCCc2ccccc21,9.5 µM (inactive)
5,CN(CC1CCCO1)S(=O)(=O)c1ccc(C(=O)Nc2nc(-c3ccccn3)cs2)cc1 (stereo not given),10.5 µM (inactive)
6,Cc1ccc2c(CC(=O)NCc3ccco3)coc2c1C,7.99 µM (inactive)
7,Cc1ccnc(SCC(=O)Nc2sc3c(c2C#N)CCCC3)n1,> 40 µM (inactive)
8,CCCCCCn1c2c(c(=N)c3c1CCC3)CCC2,0.482 µM
9,CCCc1ccc(-c2ccc(F)c(N)c2)nc1,> 40 µM (inactive)
10,COc1cccc(C2C=C(c3ccc(OC)cc3OC)Nc3nnnn32)c1 (stereo not given),18.4 µM (inactive)
11,Cc1cc(N2CCN(c3nc4ccccc4s3)CC2)n2ncnc2n1,8.41 µM (inactive)
12,C=CS(=O)(=O)c1ccc(Oc2ccc(S(=O)(=O)C=C)cc2)cc1,1.9 µM
13,CCc1nnc(NC(=O)CSc2nc3cccnc3n2C2CCCCC2)s1,> 40 µM (inactive)
14,CC(=O)N1CCc2c(sc(NC(=O)c3ccc4c(c3)OCCO4)c2C#N)C1,2.6 µM
15,Cc1c(C(=O)OCC(C)C)[nH]c2c1C(=O)CC(c1ccco1)C2 (stereo not given),0.462 µM
16,CCn1c2ccccc2c2cc(Nc3cc(C)nc4ncnn34)ccc21,0.109 µM
17,Cc1ccc2c(c1)nnn2C1CCN(S(=O)(=O)c2ccc(C(=O)N3C(C)CCCC3C)cc2)CC1 (stereo not given),9.39 µM (inactive)
18,Cc1cccc(Cn2c(=O)n(CCCC(=O)NCc3ccco3)c(=O)c3ccccc32)c1,5.14 µM (inactive)
19,CCOc1ccc2nc(-c3ccccc3)[nH]c2c1,3.01 µM
20,CCCCNc1ncnc2c1cnn2-c1ccc(Cl)cc1,2.56 µM
21,c1ccc(C(Cc2nc(-c3ccncc3)no2)c2ccccc2)cc1,8.52 µM (inactive)
22,CS(=O)(=O)c1ncc(Cl)c(C(=O)Nc2ccc(N3CCOCC3)cc2)n1,2.61 µM
23,CSC1=C(C#N)C(c2ccc(Cl)cc2)C2=C(CC(C)(C)CC2=O)N1 (stereo not given),14.7 µM (inactive)
24,CCOC(=O)c1[nH]c(C)c(C(=O)Nc2ccccc2F)c1C,1.42 µM
25,CN1/C(=C/C(=O)c2nc(S(C)(=O)=O)ncc2Cl)C(C)(C)c2ccccc21,> 13 µM (inactive)

row,Structure (SMILES),CC50
1,CCCCn1c2c(c(=N)c3c1CCC3)CCC2,3.9 µM
2,CCCCN(C)S(=O)(=O)c1ccc(C(=O)Nc2nnc(CSC)o2)cc1,27.9 µM (inactive)
3,CCOC(=O)N1CCN(S(=O)(=O)c2ccc(C(=O)Nc3ccc(F)cc3F)cc2)CC1,1.09 µM
4,CC(=O)c1c(N2CCN(Cc3ccccc3)CC2)[nH]c(-c2ccccc2)nc1=S,> 40 µM (inactive)
5,O=C(NCCN1CCOCC1)NC1(C(F)(F)F)Oc2ccc(Cl)cc2O1 (stereo not given),8.23 µM (inactive)
6,Cc1ccc(C2c3c(-c4ccccc4O)n[nH]c3C(=O)N2Cc2ccncc2)cc1 (stereo not given),6.79 µM (inactive)
7,COc1ccc(C)c(Cn2c(-c3nonc3N)nc3ccccc32)c1,1.97 µM
8,Cc1nn(-c2ccccc2)c(C)c1C(=O)OCC(=O)c1c(N)n(CC(C)C)c(=O)n(C)c1=O,9.53 µM (inactive)
9,COc1cccc(-c2cc(C(=O)Nc3cccc(O)c3)no2)c1,> 40 µM (inactive)
10,Oc1c(CN2CCCCC2)cc(Br)c2cccnc12,3.79 µM
11,O=C(Nc1nc(-c2nc3ccccc3s2)cs1)c1ccc(S(=O)(=O)N2CCOCC2)cc1,> 40 µM (inactive)
12,CS(=O)(=O)N1CCc2cc(S(=O)(=O)Nc3ccc4c(c3)OCCO4)ccc21,29.1 µM (inactive)
13,Cc1ccc(Oc2ccc(S(=O)(=O)N3CCOCC3)cc2C(N)=O)c(-n2nc3ccccc3n2)c1,2.31 µM
14,COc1ccc(Cl)cc1S(=O)(=O)n1cnc2ccccc21,> 40 µM (inactive)
15,c1ccc2c(c1)[nH]c1c(N3CCCC3)ncnc12,13.3 µM (inactive)
16,Cc1ccc(Cl)cc1N1CCN(C(=O)COc2ccc(S(=O)(=O)NC(C)C)cc2)CC1,6.43 µM (inactive)
17,O=C(NCc1cccs1)C1CCN(c2ccc(S(=O)(=O)N3CCOCC3)cc2Cl)CC1,0.875 µM
18,Cn1nnnc1SCC(=O)Nc1ccc(Oc2ccc(Cl)cc2)cc1,36.8 µM (inactive)
19,C=CCn1c(O)c(C(C)=NCc2cc(OC)cc(OC)c2)c(=O)[nH]c1=O,7.66 µM (inactive)
20,CCc1ccc2oc(-c3cc(N)cc(C)c3O)nc2c1,> 13 µM (inactive)
21,Cc1cc(NC(=O)COc2cccc(Oc3ccccc3)c2)no1,8.94 µM (inactive)
22,COc1cc(C)c(Cl)cc1S(=O)(=O)NCc1ccncc1,3.1 µM
23,Cc1ccc(OCCN2CCN(C(=O)CCC(=O)Nc3nnc(C(C)C)s3)CC2)cc1,5.08 µM (inactive)
24,COC(=O)c1ccc(NC(=O)c2ccc(N(C)S(C)(=O)=O)cc2)cc1,11.9 µM (inactive)
25,COC(=O)c1[nH]c2c(c1C)C(=O)CC(c1cccs1)C2 (stereo not given),0.677 µM

row,Structure (SMILES),CC50
1,C=CCN1C(=Nc2cccnc2)SCC1(O)c1ccc(C)cc1 (stereo not given),17.9 µM (inactive)
2,Nc1nonc1-c1nc2ccccc2n1Cc1ccccc1,6.41 µM (inactive)
3,CCOC(=O)Nc1ccc2c(c1)N(C(=O)OC)c1ccccc1CC2,> 4.4 µM (inactive)
4,Cn1nc(CC(=O)Nc2ccc(N3CCN(C(=O)OC(C)(C)C)CC3)cc2)c2ccccc2c1=O,> 13 µM (inactive)
5,COc1cc(NS(=O)(=O)c2ccc(NC(C)=O)cc2)cc(OC)c1,14.8 µM (inactive)
6,Cc1cccc2cc3c(N)c(C(=O)N4CCOCC4)sc3nc12,0.95 µM
7,Cc1cccc(N2CCN(c3cccc(C)c3)C2c2cccnc2)c1,15.8 µM (inactive)
8,Cc1noc(C)c1CSc1nc2ccccc2c(=O)n1-c1ccc(F)cc1F,> 4.4 µM (inactive)
9,O=C(Nc1nnc(C2CC2)o1)c1ccc(S(=O)(=O)N2CCCc3ccccc32)cc1,22.9 µM (inactive)
10,N=c1ccn(Cc2ccc(Cl)c(Cl)c2)cc1,10.4 µM (inactive)
11,COC(=O)Nc1ccc(S(=O)(=O)N2c3ccccc3CCC2C)cc1 (stereo not given),2.19 µM
12,COc1ccc(C2CC(c3c(O)cc(C)oc3=O)=NCCS2)c(OC)c1 (stereo not given),0.318 µM
13,O=C1CCCN1c1ccc(S(=O)(=O)Nc2ccc3c(c2)OCCO3)cc1,1.78 µM
14,Oc1ccc(COCc2ccccc2)c2cccnc12,3.06 µM
15,Cc1nc(C)c2c(=O)cc(-c3ccccc3)[nH]c2n1,4.05 µM
16,Cc1oc(-c2ccc(Cl)cc2)nc1CN1CCCC(C(=O)N2CCN(C(=O)c3ccco3)CC2)C1 (stereo not given),2.07 µM
17,COc1ccc(NS(=O)(=O)c2cc(C)ccc2C)cc1,5.18 µM (inactive)
18,COc1ccccc1N1CCN(Cc2cc(Br)c(O)c3ncccc23)CC1,7.73 µM (inactive)
19,Cc1cc2c(cc(C(=O)OCC(=O)NCc3cccs3)n2C(C)C)o1,0.837 µM
20,COc1ccccc1-n1cnc2cc(NCc3ccco3)ccc21,0.313 µM
21,COc1ccc(OC)c(Nc2cc(-c3ccccc3)nc(N)n2)c1,0.699 µM
22,Cn1cc(/C=N/n2cnc3scc(-c4ccccc4)c3c2=O)c2ccccc21,1.1 µM
23,Cc1ccc(C(=O)N2CCN(c3cccc(Cl)c3)CC2)cc1C,19.1 µM (inactive)
24,N=c1c2c(-c3ccccc3)c(-c3ccccc3)n(Cc3ccco3)c2ncn1Cc1ccco1,23.7 µM (inactive)
25,CCOC(=O)N1CCC(NC(=O)c2ccc3c(c2)sc2nc(-c4cccc(OC)c4)cn23)CC1,35.1 µM (inactive)
